Assays:
velvetleaf = experiment: Test C preemergence; format: in vivo, Abutilon theophrasti; conditions: Abutilon theophrasti, pre-emergence
Summary of the method: (§1)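 Visual injury score versus untreated controls, 0 = no effect, 100 = complete control, taken 13 to 15 days after treatment in the greenhouse. Pre-emergence pots held loam/sand; post-emergence plants grew in sphagnum peat/vermiculite mix and were sprayed at the 1- to 4-leaf stage.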

barnyardgrass = experiment: Test C preemergence; format: in vivo, Echinochloa crus-galli; conditions: Echinochloa crus-galli, pre-emergence
Summary of the method: as §1

blackgrass [1] = experiment: Test A postemergence; format: in vivo, Alopecurus myosuroides; conditions: 0 to 100 scale where 0 is no effect and 100 is complete control
Summary of the method: (§2)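 Compounds in non-phytotoxic solvent with surfactant applied as soil spray preemergence, or postemergence to plants 2-10 cm at one- to two-leaf stage, in loam/sand. After approximately 10 days in greenhouse, injury rated visually versus untreated controls, 0 (no effect) to 100 (complete control).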

morningglory = experiment: Test C preemergence; format: in vivo, Ipomoea coccinea; conditions: Ipomoea, pre-emergence
Summary of the method: as §1

pigweed = experiment: Test C preemergence; format: in vivo, Amaranthus retroflexus; conditions: Amaranthus retroflexus, pre-emergence
Summary of the method: as §1

ragweed = experiment: Test A postemergence; format: in vivo, Ambrosia elatior; conditions: 0 to 100 scale where 0 is no effect and 100 is complete control
Summary of the method: as §2

yellow nutsedge = experiment: Test C preemergence; format: in vivo, Cyperus esculentus; conditions: Cyperus, pre-emergence
Summary of the method: as §1

Italian ryegrass [2] = experiment: Test A postemergence; format: in vivo, Lolium multiflorum; conditions: 0 to 100 scale where 0 is no effect and 100 is complete control
Summary of the method: as §2

large (Lg) crabgrass = experiment: Test C preemergence; format: in vivo, Digitaria sanguinalis; conditions: Digitaria sanguinalis, pre-emergence
Summary of the method: as §1

soybean = experiment: Test C preemergence; format: in vivo, Glycine max; conditions: Glycine max, pre-emergence
Summary of the method: as §1

lambsquarters = experiment: Test C preemergence; format: in vivo, Chenopodium album; conditions: Chenopodium album, pre-emergence
Summary of the method: as §1

kochia = experiment: Test A postemergence; format: in vivo, Kochia scoparia; conditions: 0 to 100 scale where 0 is no effect and 100 is complete control
Summary of the method: as §2

waterhemp = experiment: Test C preemergence; format: in vivo, Amaranthus rudis; conditions: Amaranthus tuberculatus, pre-emergence
Summary of the method: as §1

Italian ryegrass [3] = experiment: Test C preemergence; format: in vivo, Lolium multiflorum; conditions: Lolium multiflorum, pre-emergence
Summary of the method: as §1

johnsongrass = experiment: Test C preemergence; format: in vivo, Sorghum halepense; conditions: Sorghum halepense, pre-emergence
Summary of the method: as §1

galium = experiment: Test A postemergence; format: in vivo, Galium aparine; conditions: 0 to 100 scale where 0 is no effect and 100 is complete control
Summary of the method: as §2

oilseed rape = experiment: Test C preemergence; format: in vivo, Brassica napus; conditions: Brassica napus, pre-emergence
Summary of the method: as §1

blackgrass [4] = experiment: Test C preemergence; format: in vivo, Alopecurus myosuroides; conditions: Alopecurus myosuroides, pre-emergence
Summary of the method: as §1

giant foxtail = experiment: Test C preemergence; format: in vivo, Setaria faberii; conditions: Setaria faberi, pre-emergence
Summary of the method: as §1

N#Cc1cccc(Oc2ncc(Cl)cn2)c1-n1cc(SC(F)(F)F)cn1 [Compound 134, 3-[(5-chloro-2-pyrimidinyl)oxy]-2-[4-(trifluoromethylthio)-1-pyrazolyl]benzonitrile]
70%: pest or weed control at 125 g/ha (Italian ryegrass [3]; 125 g ai/ha, preemergence, scale 0 (no effect) to 100 (complete control), read-out: Ryegrass, Italian plant response rating)
90: Plant response rating, Blackgrass (blackgrass [1]; 500 g ai/ha) | Kochia plant response rating (kochia; 125 g ai/ha)
35%: pest or weed control at 31 g/ha (velvetleaf; Preemergence, 31 g ai/ha, scale 0 to 100, 0 no effect, 100 complete control, read-out: Plant response rating, Velvetleaf) | pest or weed control at 62 g/ha (morningglory; 62 g ai/ha, preemergence, scale 0 (no effect) to 100 (complete control), read-out: Morningglory plant response rating)
20%: pest or weed control at 31 g/ha (morningglory; Preemergence, 31 g ai/ha, scale 0 to 100, 0 no effect, 100 complete control, read-out: Plant response rating, Morningglory) | plant injury at 62 g/ha (soybean; 62 g ai/ha, preemergence, scale 0 (no effect) to 100 (complete control), read-out: Soybean plant response rating) | pest or weed control at 16 g/ha (johnsongrass; 16 g ai/ha, preemergence, scale 0 to 100 (0 no effect, 100 complete control), read-out: Johnsongrass plant response rating) | plant injury at 16 g/ha (oilseed rape; 16 g ai/ha, preemergence, scale 0 to 100 (0 no effect, 100 complete control), read-out: Oilseed Rape plant response rating)
100%: pest or weed control at 125 g/ha (velvetleaf; 125 g ai/ha, preemergence, scale 0 (no effect) to 100 (complete control), read-out: Velvetleaf plant response rating) | pest or weed control at 16 g/ha (pigweed; 16 g ai/ha, preemergence, scale 0 to 100 (0 no effect, 100 complete control), read-out: Pigweed plant response rating) | pest or weed control at 62 g/ha (pigweed; 62 g ai/ha, preemergence, scale 0 (no effect) to 100 (complete control), read-out: Pigweed plant response rating) | pest or weed control at 125 g/ha (pigweed; 125 g ai/ha, preemergence, scale 0 (no effect) to 100 (complete control), read-out: Pigweed plant response rating) | pest or weed control at 31 g/ha (pigweed; Preemergence, 31 g ai/ha, scale 0 to 100, 0 no effect, 100 complete control, read-out: Plant response rating, Pigweed) | pest or weed control at 125 g/ha (large (Lg) crabgrass; 125 g ai/ha, preemergence, scale 0 (no effect) to 100 (complete control), read-out: Crabgrass, Large plant response rating) | pest or weed control at 62 g/ha (lambsquarters; 62 g ai/ha, preemergence, scale 0 (no effect) to 100 (complete control), read-out: Lambsquarters plant response rating) | pest or weed control at 125 g/ha (lambsquarters; 125 g ai/ha, preemergence, scale 0 (no effect) to 100 (complete control), read-out: Lambsquarters plant response rating) | pest or weed control at 31 g/ha (lambsquarters; Preemergence, 31 g ai/ha, scale 0 to 100, 0 no effect, 100 complete control, read-out: Plant response rating, Lambsquarters) | pest or weed control at 62 g/ha (waterhemp; 62 g ai/ha, preemergence, scale 0 (no effect) to 100 (complete control), read-out: Waterhemp plant response rating) | pest or weed control at 125 g/ha (waterhemp; 125 g ai/ha, preemergence, scale 0 (no effect) to 100 (complete control), read-out: Waterhemp plant response rating) | pest or weed control at 31 g/ha (waterhemp; Preemergence, 31 g ai/ha, scale 0 to 100, 0 no effect, 100 complete control, read-out: Plant response rating, Waterhemp) | plant injury at 62 g/ha (oilseed rape; 62 g ai/ha, preemergence, scale 0 (no effect) to 100 (complete control), read-out: Oilseed Rape plant response rating) | plant injury at 125 g/ha (oilseed rape; 125 g ai/ha, preemergence, scale 0 (no effect) to 100 (complete control), read-out: Oilseed Rape plant response rating) | pest or weed control at 62 g/ha (giant foxtail; 62 g ai/ha, preemergence, scale 0 (no effect) to 100 (complete control), read-out: Foxtail, Giant plant response rating) | pest or weed control at 125 g/ha (giant foxtail; 125 g ai/ha, preemergence, scale 0 (no effect) to 100 (complete control), read-out: Foxtail, Giant plant response rating)
60: Plant response rating, Ragweed (ragweed; 500 g ai/ha)
0%: pest or weed control at 16 g/ha (barnyardgrass; 16 g ai/ha, preemergence, scale 0 to 100 (0 no effect, 100 complete control), read-out: Barnyardgrass plant response rating) | pest or weed control at 16 g/ha (yellow nutsedge; 16 g ai/ha, preemergence, scale 0 to 100 (0 no effect, 100 complete control), read-out: Nutsedge, Yellow plant response rating) | pest or weed control at 62 g/ha (yellow nutsedge; 62 g ai/ha, preemergence, scale 0 (no effect) to 100 (complete control), read-out: Nutsedge, Yellow plant response rating) | pest or weed control at 31 g/ha (yellow nutsedge; Preemergence, 31 g ai/ha, scale 0 to 100, 0 no effect, 100 complete control, read-out: Plant response rating, Nutsedge, Yellow) | plant injury at 16 g/ha (soybean; 16 g ai/ha, preemergence, scale 0 to 100 (0 no effect, 100 complete control), read-out: Soybean plant response rating) | pest or weed control at 16 g/ha (Italian ryegrass [3]; 16 g ai/ha, preemergence, scale 0 to 100 (0 no effect, 100 complete control), read-out: Ryegrass, Italian plant response rating) | pest or weed control at 16 g/ha (blackgrass [4]; 16 g ai/ha, preemergence, scale 0 to 100 (0 no effect, 100 complete control), read-out: Blackgrass plant response rating)
98%: pest or weed control at 62 g/ha (large (Lg) crabgrass; 62 g ai/ha, preemergence, scale 0 (no effect) to 100 (complete control), read-out: Crabgrass, Large plant response rating) | pest or weed control at 31 g/ha (large (Lg) crabgrass; Preemergence, 31 g ai/ha, scale 0 to 100, 0 no effect, 100 complete control, read-out: Plant response rating, Crabgrass, Large) | pest or weed control at 125 g/ha (blackgrass [4]; 125 g ai/ha, preemergence, scale 0 (no effect) to 100 (complete control), read-out: Blackgrass plant response rating)
85%: pest or weed control at 62 g/ha (velvetleaf; 62 g ai/ha, preemergence, scale 0 (no effect) to 100 (complete control), read-out: Velvetleaf plant response rating) | pest or weed control at 125 g/ha (barnyardgrass; 125 g ai/ha, preemergence, scale 0 (no effect) to 100 (complete control), read-out: Barnyardgrass plant response rating) | pest or weed control at 16 g/ha (waterhemp; 16 g ai/ha, preemergence, scale 0 to 100 (0 no effect, 100 complete control), read-out: Waterhemp plant response rating) | pest or weed control at 125 g/ha (johnsongrass; 125 g ai/ha, preemergence, scale 0 (no effect) to 100 (complete control), read-out: Johnsongrass plant response rating) | pest or weed control at 62 g/ha (blackgrass [4]; 62 g ai/ha, preemergence, scale 0 (no effect) to 100 (complete control), read-out: Blackgrass plant response rating)
5%: pest or weed control at 16 g/ha (morningglory; 16 g ai/ha, preemergence, scale 0 to 100 (0 no effect, 100 complete control), read-out: Morningglory plant response rating) | pest or weed control at 31 g/ha (Italian ryegrass [3]; Preemergence, 31 g ai/ha, scale 0 to 100, 0 no effect, 100 complete control, read-out: Plant response rating, Ryegrass, Italian)
55%: plant injury at 125 g/ha (soybean; 125 g ai/ha, preemergence, scale 0 (no effect) to 100 (complete control), read-out: Soybean plant response rating)
65%: pest or weed control at 31 g/ha (giant foxtail; Preemergence, 31 g ai/ha, scale 0 to 100, 0 no effect, 100 complete control, read-out: Plant response rating, Foxtail, Giant)
50: Ragweed plant response rating (ragweed; 125 g ai/ha) | Ryegrass, Italian plant response rating (Italian ryegrass [2]; 125 g ai/ha)
15%: pest or weed control at 31 g/ha (barnyardgrass; Preemergence, 31 g ai/ha, scale 0 to 100, 0 no effect, 100 complete control, read-out: Plant response rating, Barnyardgrass) | plant injury at 31 g/ha (soybean; Preemergence, 31 g ai/ha, scale 0 to 100, 0 no effect, 100 complete control, read-out: Plant response rating, Soybean) | pest or weed control at 62 g/ha (Italian ryegrass [3]; 62 g ai/ha, preemergence, scale 0 (no effect) to 100 (complete control), read-out: Ryegrass, Italian plant response rating)
10%: pest or weed control at 125 g/ha (yellow nutsedge; 125 g ai/ha, preemergence, scale 0 (no effect) to 100 (complete control), read-out: Nutsedge, Yellow plant response rating) | pest or weed control at 16 g/ha (giant foxtail; 16 g ai/ha, preemergence, scale 0 to 100 (0 no effect, 100 complete control), read-out: Foxtail, Giant plant response rating)
45%: pest or weed control at 62 g/ha (johnsongrass; 62 g ai/ha, preemergence, scale 0 (no effect) to 100 (complete control), read-out: Johnsongrass plant response rating) | plant injury at 31 g/ha (oilseed rape; Preemergence, 31 g ai/ha, scale 0 to 100, 0 no effect, 100 complete control, read-out: Plant response rating, Oilseed Rape) | pest or weed control at 31 g/ha (blackgrass [4]; Preemergence, 31 g ai/ha, scale 0 to 100, 0 no effect, 100 complete control, read-out: Plant response rating, Blackgrass)
100: Plant response rating, Ryegrass, Italian (Italian ryegrass [2]; 500 g ai/ha) | Plant response rating, Kochia (kochia; 500 g ai/ha) | Galium plant response rating (galium; 125 g ai/ha) | Plant response rating, Galium (galium; 500 g ai/ha)
25%: pest or weed control at 31 g/ha (johnsongrass; Preemergence, 31 g ai/ha, scale 0 to 100, 0 no effect, 100 complete control, read-out: Plant response rating, Johnsongrass)
60%: pest or weed control at 62 g/ha (barnyardgrass; 62 g ai/ha, preemergence, scale 0 (no effect) to 100 (complete control), read-out: Barnyardgrass plant response rating) | pest or weed control at 16 g/ha (large (Lg) crabgrass; 16 g ai/ha, preemergence, scale 0 to 100 (0 no effect, 100 complete control), read-out: Crabgrass, Large plant response rating) | pest or weed control at 16 g/ha (lambsquarters; 16 g ai/ha, preemergence, scale 0 to 100 (0 no effect, 100 complete control), read-out: Lambsquarters plant response rating)
30: Blackgrass plant response rating (blackgrass [1]; 125 g ai/ha)
30%: pest or weed control at 16 g/ha (velvetleaf; 16 g ai/ha, preemergence, scale 0 to 100 (0 no effect, 100 complete control), read-out: Velvetleaf plant response rating)
40%: pest or weed control at 125 g/ha (morningglory; 125 g ai/ha, preemergence, scale 0 (no effect) to 100 (complete control), read-out: Morningglory plant response rating)
